Tests used:
mongrel adult dogs [1] = assay: Effects on arterial mean blood pressure (thoractomized anesthetized dogs, i.v.); format: in vivo, dog
Procedure: (§1) All experiments were conducted on male and female thoractomized mongrel adult dogs weighing about 10 Kg under anesthesia with pentobarbital sodium.
(§2) Arterial blood pressure was measured by pressure transducer (Nippon Koden MPU-0.5) connected with the cannula inserted from exposed carotid artery into aorta. Aortic blood flow was determined by means of electromagnetic flow meter (Nippon Koden MF-5) mounted at an origin of aorta. Coronary sinus out flow and coronary sinus oxygen tension were assessed by means of electromagnetic flow meter (Nippon Koden MF-5) and Po2 Macro electrode (Beckmann Moder 160-C), respectively, using Morawitz cannulization technique. Heart rate was measured by cardiotachometer (Nippon Koden RT-2) synchronized with systolic blood pressure of aorta.

mongrel adult dogs [2] = assay: Effects on the work done by the left ventricle (thoractomized anesthetized dogs, i.v.); format: in vivo, dog
Procedure: as §1, §2
The work done by the left ventricle is calculated according to the following equation: […]

mongrel adult dogs [3] = assay: Effects on coronary sinus oxygen tension (thoractomized anesthetized dogs, i.v.); format: in vivo, dog
Procedure: as §1, §2

dd-0train male mice = assay: Acute toxicity (LD50; per os, mice); format: in vivo
Procedure: (§3) 7. Acute Toxicity (See Table 7) Acute toxicity (LD50; per os, mice) was measured in dd-0train male mice.

[4] = Acute toxicity (LD50; per os, mice); format: in vivo; details: mouse, in vivo, po, dd-0train male mice
Procedure: as §3

mongrel adult dogs [5] = assay: Effects on aortic blood flow (thoractomized anesthetized dogs, i.v.); format: in vivo, dog
Procedure: as §1, §2

mongrel adult dogs [6] = assay: Effects on coronary sinus out flow (thoractomized anesthetized dogs, i.v.); format: in vivo, dog
Procedure: as §1, §2

mongrel adult dogs [7] = assay: Effects on heart rate (thoractomized anesthetized dogs, i.v.); format: in vivo, dog
Procedure: as §1, §2

What does the source list for `CCOC(=O)N1CCN(C(C#N)c2ccc(OC)c(OC)c2)CC1` (stereo not drawn) [Compound B-01, N-(α-cyano-3,4-dimethoxybenzyl)-N'-ethoxycarbonyl piperazine]?
Changes(%) of basal values, arterial mean blood pressure (mongrel adult dogs [1]; i.v. 2.0 mg/Kg, 15 min): -4.5%; Changes(%) of basal values, arterial mean blood pressure (mongrel adult dogs [1]; i.v. 2.0 mg/Kg, 25 min): -4.0%; Changes(%) of basal values, arterial mean blood pressure (mongrel adult dogs [1]; i.v. 6.0 mg/Kg, 15 min): -6.3%; Changes(%) of basal values, arterial mean blood pressure (mongrel adult dogs [1]; i.v. 6.0 mg/Kg, 25 min): -3.0%; Changes(%) of basal values, arterial mean blood pressure (mongrel adult dogs [1]; i.v. 20.0 mg/Kg, 15 min): -17.7%; Changes(%) of basal values, arterial mean blood pressure (mongrel adult dogs [1]; i.v. 20.0 mg/Kg, 25 min): -17.4%; Duration of hypotensive effect (in words) (mongrel adult dogs [1]; i.v., dogs): longer duration; Effect on arterial mean blood pressure (in words) (mongrel adult dogs [1]; i.v., dogs): hypotensive effects; Changes(%) of basal values, work of left ventricle (mongrel adult dogs [2]; i.v. 2.0 mg/Kg, 1 min): +2.7%; Changes(%) of basal values, work of left ventricle (mongrel adult dogs [2]; i.v. 2.0 mg/Kg, 5 min): +0.8%; Changes(%) of basal values, work of left ventricle (mongrel adult dogs [2]; i.v. 2.0 mg/Kg, 10 min): -2.0%; Changes(%) of basal values, work of left ventricle (mongrel adult dogs [2]; i.v. 2.0 mg/Kg, 15 min): -2.6%; Changes(%) of basal values, work of left ventricle (mongrel adult dogs [2]; i.v. 2.0 mg/Kg, 20 min): -2.9%; Changes(%) of basal values, work of left ventricle (mongrel adult dogs [2]; i.v. 2.0 mg/Kg, 25 min): -3.1%; Changes(%) of basal values, work of left ventricle (mongrel adult dogs [2]; i.v. 2.0 mg/Kg, 30 min): -3.6%; Changes(%) of basal values, work of left ventricle (mongrel adult dogs [2]; i.v. 2.0 mg/Kg, imm.): -3.6%; Changes(%) of basal values, work of left ventricle (mongrel adult dogs [2]; i.v. 6.0 mg/Kg, 1 min): +2.3%; Changes(%) of basal values, work of left ventricle (mongrel adult dogs [2]; i.v. 6.0 mg/Kg, 5 min): -1.7%; Changes(%) of basal values, work of left ventricle (mongrel adult dogs [2]; i.v. 6.0 mg/Kg, 10 min): -5.9%; Changes(%) of basal values, work of left ventricle (mongrel adult dogs [2]; i.v. 6.0 mg/Kg, 15 min): -8.3%; Changes(%) of basal values, work of left ventricle (mongrel adult dogs [2]; i.v. 6.0 mg/Kg, 20 min): -5.3%; Changes(%) of basal values, work of left ventricle (mongrel adult dogs [2]; i.v. 6.0 mg/Kg, 25 min): -2.0%; Changes(%) of basal values, work of left ventricle (mongrel adult dogs [2]; i.v. 6.0 mg/Kg, 30 min): -2.8%; Changes(%) of basal values, work of left ventricle (mongrel adult dogs [2]; i.v. 6.0 mg/Kg, imm.): -0.1%; Changes(%) of basal values, work of left ventricle (mongrel adult dogs [2]; i.v. 20.0 mg/Kg, 1 min): -10.9%; Changes(%) of basal values, work of left ventricle (mongrel adult dogs [2]; i.v. 20.0 mg/Kg, 5 min): -8.4%; Changes(%) of basal values, work of left ventricle (mongrel adult dogs [2]; i.v. 20.0 mg/Kg, 10 min): -9.2%; Changes(%) of basal values, work of left ventricle (mongrel adult dogs [2]; i.v. 20.0 mg/Kg, 15 min): -14.8%; Changes(%) of basal values, work of left ventricle (mongrel adult dogs [2]; i.v. 20.0 mg/Kg, 20 min): -14.3%; Changes(%) of basal values, work of left ventricle (mongrel adult dogs [2]; i.v. 20.0 mg/Kg, 25 min): -16.1%; Changes(%) of basal values, work of left ventricle (mongrel adult dogs [2]; i.v. 20.0 mg/Kg, 30 min): -14.1%; Changes(%) of basal values, work of left ventricle (mongrel adult dogs [2]; i.v. 20.0 mg/Kg, imm.): -8.5%; Duration of effect on the work of the left ventricle (in words) (mongrel adult dogs [2]; i.v., dogs): longer duration; Effect on the work of the left ventricle (in words) (mongrel adult dogs [2]; i.v., dogs): decrease in the work of the left ventricle; Changes(%) of basal values, coronary sinus oxygen tension (mongrel adult dogs [3]; i.v. 2.0 mg/Kg, 15 min): +12.0%; Changes(%) of basal values, coronary sinus oxygen tension (mongrel adult dogs [3]; i.v. 2.0 mg/Kg, 25 min): +12.5%; Changes(%) of basal values, coronary sinus oxygen tension (mongrel adult dogs [3]; i.v. 6.0 mg/Kg, 10 min): +3.0%; Changes(%) of basal values, coronary sinus oxygen tension (mongrel adult dogs [3]; i.v. 6.0 mg/Kg, 15 min): +25.5%; Changes(%) of basal values, coronary sinus oxygen tension (mongrel adult dogs [3]; i.v. 6.0 mg/Kg, 25 min): +16.2%; Changes(%) of basal values, coronary sinus oxygen tension (mongrel adult dogs [3]; i.v. 20.0 mg/Kg, 5 min): +89.0%; Changes(%) of basal values, coronary sinus oxygen tension (mongrel adult dogs [3]; i.v. 20.0 mg/Kg, 15 min): +90.1%; Changes(%) of basal values, coronary sinus oxygen tension (mongrel adult dogs [3]; i.v. 20.0 mg/Kg, 25 min): +63.0%; Duration of effect on coronary sinus oxygen tension (in words) (mongrel adult dogs [3]; i.v., dogs): proportioned to an increase in coronary sinus out flow and of longer duration; Effect on coronary sinus oxygen tension (in words) (mongrel adult dogs [3]; i.v., dogs): significant increase in coronary sinus oxygen tension; LD50 (dd-0train male mice; dd-0train male mice): 2200 mg/kg; Acute toxicity relative to Vastarel F (in words) (dd-0train male mice; mice): significantly less toxicity than that of Vastarel F; LD50 [4]: 2200 mg/kg; Changes(%) of basal values, aortic blood flow (mongrel adult dogs [5]; i.v. 2.0 mg/Kg, 15 min): +2.0%; Changes(%) of basal values, aortic blood flow (mongrel adult dogs [5]; i.v. 2.0 mg/Kg, 25 min): +1.0%; Changes(%) of basal values, aortic blood flow (mongrel adult dogs [5]; i.v. 6.0 mg/Kg, 15 min): +0.1%; Changes(%) of basal values, aortic blood flow (mongrel adult dogs [5]; i.v. 6.0 mg/Kg, 25 min): +1.0%; Changes(%) of basal values, aortic blood flow (mongrel adult dogs [5]; i.v. 20.0 mg/Kg, 15 min): +3.6%; Changes(%) of basal values, aortic blood flow (mongrel adult dogs [5]; i.v. 20.0 mg/Kg, 25 min): +1.6%; Increase of aortic blood flow (mongrel adult dogs [5]; i.v., dogs): 2-8%; Later effect on aortic blood flow / its duration (in words) (mongrel adult dogs [5]; i.v., dogs): longer duration; Effect on aortic blood flow immediately after administration (in words) (mongrel adult dogs [5]; i.v., dogs, immediately): no decrease in blood flow immediately after medication; Changes(%) of basal values, coronery sinus out flow (mongrel adult dogs [6]; i.v. 2.0 mg/Kg, 15 min): +4.4%; Changes(%) of basal values, coronery sinus out flow (mongrel adult dogs [6]; i.v. 2.0 mg/Kg, 25 min): +3.0%; Changes(%) of basal values, coronery sinus out flow (mongrel adult dogs [6]; i.v. 6.0 mg/Kg, 15 min): +10.9%; Changes(%) of basal values, coronery sinus out flow (mongrel adult dogs [6]; i.v. 6.0 mg/Kg, 25 min): +8.0%; Changes(%) of basal values, coronery sinus out flow (mongrel adult dogs [6]; i.v. 20.0 mg/Kg, 15 min): +38.2%; Changes(%) of basal values, coronery sinus out flow (mongrel adult dogs [6]; i.v. 20.0 mg/Kg, 25 min): +20.3%; Dose dependence and duration of effect on coronary sinus out flow (in words) (mongrel adult dogs [6]; i.v., dogs): proportioned to doses and of longer duration; Effect on coronary sinus out flow (in words) (mongrel adult dogs [6]; i.v., dogs): marked increasing effect on coronary sinus out flow; Changes(%) of basal values, heart rate (mongrel adult dogs [7]; i.v. 2.0 mg/Kg, 15 min): 0%; Changes(%) of basal values, heart rate (mongrel adult dogs [7]; i.v. 2.0 mg/Kg, 25 min): 0%; Changes(%) of basal values, heart rate (mongrel adult dogs [7]; i.v. 6.0 mg/Kg, 15 min): +0.6%; Changes(%) of basal values, heart rate (mongrel adult dogs [7]; i.v. 6.0 mg/Kg, 25 min): +1.0%; Changes(%) of basal values, heart rate (mongrel adult dogs [7]; i.v. 20.0 mg/Kg, 15 min): -2.6%; Changes(%) of basal values, heart rate (mongrel adult dogs [7]; i.v. 20.0 mg/Kg, 25 min): -6.3%; Effect on heart rate (in words) (mongrel adult dogs [7]; i.v., dogs): sight negative chromotropic effect
